Measurements taken from article PMC12346692, “SUL-150 Limits Vascular Remodeling and Ventricular Failure in Pulmonary Arterial Hypertension” (International Journal of Molecular Sciences, 2025).

Experiments:
pulmonary artery rings [1] = test: Ex vivo myography of pulmonary artery rings, acute SUL-150 pre-incubation, phenylephrine-induced vasoconstriction; design: species or system rat; details: vehicle pre-incubation; for EC50: Rattus norvegicus
Protocol: The fourth-degree branching intralobar pulmonary arteries were carefully dissected under a Leica S4E stereomicroscope as described before. Arterial ring segments (2 mm length) were mounted in a Mulvany-type wire myograph system (model #610M, Danish Myo Technology, Aarhus, Denmark) using Ø40 µm steel wire. Rings were preserved in myography chambers filled with aerated Krebs buffer (pH 7.4) at 37 °C. After 20 min equilibration, rings were stretched to 1.8 kPa using the DMT Normalization Procedure and allowed to equilibrate for an additional 20 min. Analogue–digital signal conversion was performed using PowerLab 8/30, and a myogram was recorded in PowerLab Chart v 5.3 (AD Instruments, Oxford, UK). To assess the acute effects of SUL-150 on vasoconstriction, arterial rings were pre-constricted with 60 mM KCl and, following washout and stabilization, incubated with vehicle (0.1% DMSO) or SUL-150 (10^−4 M) for 20 min. Next, constriction responses to phenylephrine (phenylephrine, Sigma-Aldrich, St. Louis, MO, USA) were recorded in the dose range of 3 × 10^−9 to 3 × 10^−5 M. To assess the chronic effects of SUL-150 treatment, a similar protocol was followed, leaving out the preincubation with vehicle or SUL-150. Isometric responses were calculated as % of maximal KCl-induced constriction, and dose–response curves were recorded to determine the efficacy (Emax) and potency (EC50) of phenylephrine to induce vasoconstriction.

[2] = test system: neonatal rat cardiomyocytes; test: In vitro hypertrophy reporter assay in phenylephrine-treated cardiomyocytes; type: cell-based; details: vehicle pre-incubation, phenylephrine 24 h
Protocol: Cultures of neonatal rat cardiomyocytes were prepared from 1–3-day-old Wistar rats and adenovirally transformed with hypertrophy reporter construct as described elsewhere. Cardiomyocytes were pre-incubated with SUL-150 (3 × 10^−5 M) or vehicle for 30 min and subsequently stimulated with phenylephrine in the dose range of 10^−8 to 10^−4 M for 24 h. Cells were lysed in passive lysis buffer (Promega, Madison, WI, USA), and […] intensity of the lysate was recorded in an EnVision 2102 plate reader (Perkin Elmer, Waltham, MA, USA).

pulmonary artery rings [3] = test: Ex vivo myography of pulmonary artery rings after chronic SUL-150 administration, phenylephrine-induced vasoconstriction; type: in vivo, rat; details: for EC50: Rattus norvegicus, 840 h
[4] = pulmonary artery rings of PAH rats
[5] = pulmonary artery rings of sham rats
[6] = rings of sham control rats (day 35, chronic study)
[7] = rings of vehicle-treated PAH rats (day 35, chronic study)

CNC[C@H](O)c1cccc(O)c1 [phenylephrine]
EC50 (pulmonary artery rings [1]; [4]): 1080 nM
EC50 (pulmonary artery rings [1]; [5]): 174 nM
Emax of phenylephrine-induced vasoconstriction (pulmonary artery rings [1]; [4]): 43.4 % of max
Emax of phenylephrine-induced vasoconstriction (pulmonary artery rings [1]; [5]): 34.7 % of max
EC50 ([2]; Rattus norvegicus, Cardiomyocyte): 1520 nM
Emax of phenylephrine in hypertrophy reporter [2]: 3.93 RFU
EC50 (pulmonary artery rings [3]; [6]): 89.8 nM
EC50 (pulmonary artery rings [3]; [7]): 1240 nM
Emax of phenylephrine-induced vasoconstriction (pulmonary artery rings [3]; [6]): 33.0 ± 2.3 % of max
Emax of phenylephrine-induced vasoconstriction (pulmonary artery rings [3]; [7]): 71.9 ± 9.2 % of max
